Experimental data: patent US10072005B2, “4-azaindole derivatives” (EISAI R&D MANAGEMENT CO., LTD., priority 2013, dated 2018)

What was measured:
mAChR M5 = mAChR M5 (Homo sapiens (Human), UniProt P08912); assay: In vitro cellular calcium flux assay, PAM, NAM and agonist modes, mAChR M5; format: cell-based
Protocol: (§1) Baby hamster kidney cells stably expressing human or rat mAChR M1 to M5 were utilised for primary and selectivity profiling activities. mAChR M2 and M4 cell lines also stably expressed the chimeric Gαqi5 G-protein.
(§2) Human mAChR M1, M3, M5 and rat M1 cells were grown in low glucose Dulbecco's Modified Eagle's Medium (DMEM) medium plus heat inactivated 10% fetal bovine serum (HI FBS) and 500 μg/ml hygromycin B^1. Human mAChR M2 and M4 cells were maintained as above with^2 the addition of 500 μg/ml G418 to the media. Cells were maintained in culture at 37° C./5% CO2 and passaged twice weekly by treatment with 0.05% Trypsin/EDTA detachment solution, centrifugation (200 g, 5 min) and re-suspension in fresh media. Following cell expansion, cells were cryopreserved at −80° C. by treatment with 0.05% Trypsin/EDTA detachment solution, centrifugation (200 g, 5 min) and re-suspension of the pellet in freezing media (90% HI FBS/10% DMSO^3) at 15E6 cells/ml^4.
(§3) Prior to assaying, cells were prepared by thawing at 37° C. in a water bath, centrifugation (200 g, 5 min) and re-suspension of the pellet in fresh media. 15000 cells per well were seeded in black, clear bottomed 384-well Greiner Bio-One plates in plating medium (DMEM/10% HI FBS) and incubated overnight at 37 C/5% CO2.
(§4) On the day of the assay, media was removed from each well and replaced with 50 μl^5 assay buffer (HBSS with 20 mM HEPES and 2.5 mM Probenecid) containing the calcium indicator, Calcium 4 (Molecular Devices). Cells were then incubated at 37° C./5% CO2 for 30 min and at room temperature.
(§5) Compound preparation was carried out by generation of 11-point, 1 in 3 serial dilution concentration response curves in 100% DMSO. Compound was then diluted 1 in 65^6 with assay buffer (HBSS with 20 mM HEPES and 2.5 mM Probenecid) prior to the addition of 10 ul^7 to the cells using a Tetra fluorometric imaging plate reader (Molecular Devices)^8. Compound driven increases in intracellular calcium flux was measured as an increase in fluorescence (494Ex, 516Em)^9.
(§6) Positive allosteric modulator pEC50 values and antagonist pIC50 values for each compound were then determined. […] The points of modification and the alternate reagents, concentrations or equipment employed in these examples were: ^1200 μg/ml hygromycin B; ^2G418 not added; ^3CELLBANKER 1; ^410E6; ^5 40 μl; ^6 1 in 99; ^7 20 μl; ^8FDSS6000 (Hamamatsu Photonics); ^9(480Ex, 540Em); ^10Spotfire (TIBCO).
(§7) Certain compounds were tested in PAM, NAM and agonist modes against mAChR M2, M3, M4 and M5.

mAChR M3 = mAChR M3 (Homo sapiens (Human), UniProt P20309); assay: In vitro cellular calcium flux assay, PAM, NAM and agonist modes, mAChR M3; format: cell-based
Chain of mAChR M3 (P20309 whole entry, looked up): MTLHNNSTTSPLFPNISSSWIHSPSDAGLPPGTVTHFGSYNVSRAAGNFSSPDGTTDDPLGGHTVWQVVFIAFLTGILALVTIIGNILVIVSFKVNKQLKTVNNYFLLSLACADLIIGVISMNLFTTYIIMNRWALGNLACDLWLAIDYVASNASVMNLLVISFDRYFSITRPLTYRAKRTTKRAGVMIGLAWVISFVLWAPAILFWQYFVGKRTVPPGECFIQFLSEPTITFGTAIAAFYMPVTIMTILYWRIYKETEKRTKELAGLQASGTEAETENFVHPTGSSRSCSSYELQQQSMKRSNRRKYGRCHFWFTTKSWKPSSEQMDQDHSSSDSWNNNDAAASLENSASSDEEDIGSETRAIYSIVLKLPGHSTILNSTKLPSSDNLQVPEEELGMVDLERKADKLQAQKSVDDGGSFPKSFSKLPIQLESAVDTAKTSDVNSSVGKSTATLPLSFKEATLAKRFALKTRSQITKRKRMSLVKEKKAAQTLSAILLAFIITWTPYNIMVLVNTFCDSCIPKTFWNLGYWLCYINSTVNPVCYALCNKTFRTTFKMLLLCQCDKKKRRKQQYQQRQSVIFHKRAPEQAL
Protocol: as §1, §2, §3, §4, §5, §6, §7

Male Lister Hooded rats = assay: Novel Object Recognition test; format: in vivo; conditions: rat, 24 h delay
Protocol: The Novel Object Recognition test (NOR) is based on the greater spontaneous exploration of a novel object, compared with a familiar object, observed in rodents (Behav. Brain Res., 1988, 31(1), 47-59). […] Therefore, it is considered to be analogous to recognition memory tests used in human clinical testing. Male Lister Hooded rats were assessed for object recognition in a test apparatus comprising of a perspex test arena housed within a sound attenuating chamber. Video images of behaviour were captured by digital camera and recorded to a computer. Rats were habituated to the test arena on four occasions prior to testing. Habituation sessions replicated the test day sequence exactly with the exception of object presentation. On test days, each rat was placed into the test arena and 3 minutes later the rat was presented with two identical objects (plastic shapes). The time spent actively exploring the objects during a 3-minute test period (T1) was recorded. Following T1 rats were returned to home cages. After 24 hours each rat was again placed in the test arena and 3 minutes later was presented with one of the now familiar objects and a novel object, and again the time spent actively exploring the objects during a 3-minute test period (T2) was recorded. The presentation order and position of objects (left/right) was randomised within groups to prevent bias from order or place preference. Objects were cleaned with 70% ethanol solution between trials to remove any olfactory/taste cues. Compounds were administered by oral gavage at an appropriate pre-treatment time prior to T1 and T2 (n=12) at dosage ranges between 0.03 and 3 mg/kg. In some experiments the 5-HT6 receptor antagonist N-(3,5-dichloro-2-methoxyphenyl)-4-methoxy-3-(piperazin-1-yl)benzenesulfonamide (CAS 402713-80-8) (10 mg/kg p.o.; 4 h pre-treatment time) was included as a positive control. Vehicle controls (1% methylcellulose in water) were included for comparison in each study. Results are expressed as the d2 index (difference in time spent exploring novel and familiar objects/total object exploration in T2).

male Long-Evans rats = assay: Novel Object Recognition Test in Scopolamine-Induced Cognitive Deficit Condition; format: in vivo; conditions: rat
Protocol: For 2 days before starting the test, 6-week old male Long-Evans rats were acclimated to experimental operations such as administration and a test device (that is, a black or gray plastic cage with a width of 40 cm, a depth of 30 cm and a height of 45 cm). Each test compound was dissolved in a 0.5% methylcellulose in water to be orally administered at dosage ranges between 0.01 and 0.1 mg/kg. Thirty minutes after the test compound administration, scopolamine hydrobromide dissolved in a saline was intraperitoneally administered at a 0.7 mg/kg dose, so as to induce cognitive impairment. After another 30 minutes, each rat was acclimated in the test device for 3 minutes, and thereafter, two blocks in the same shape were put in the test device as acquisition trial, and exploring time for each block was measured for 5 minutes. Two hours after the acquisition trial, the rat was acclimated in the test device for 3 minutes, and thereafter, the same block as those used in the acquisition trial and a new block in a different shape were put in the cage for retention trial. The exploring time for each block was measured for 3 minutes, and a ratio of the exploring time for the newly used block to the sum of the exploring times for the respective blocks was calculated as a discrimination index (novel object exploration time/total object exploration time in retention trial×100). […]
Each discrimination index was shown as an average and a standard error. The statistical significance between the vehicle group and the scopolamine alone group was analyzed by the independent t-test. The statistical significance between the scopolamine alone group and each sample group was analyzed by one-way analysis of variance and then by Dunnett's multiple comparison test. […]

Chain of mAChR M5 (P08912 whole entry): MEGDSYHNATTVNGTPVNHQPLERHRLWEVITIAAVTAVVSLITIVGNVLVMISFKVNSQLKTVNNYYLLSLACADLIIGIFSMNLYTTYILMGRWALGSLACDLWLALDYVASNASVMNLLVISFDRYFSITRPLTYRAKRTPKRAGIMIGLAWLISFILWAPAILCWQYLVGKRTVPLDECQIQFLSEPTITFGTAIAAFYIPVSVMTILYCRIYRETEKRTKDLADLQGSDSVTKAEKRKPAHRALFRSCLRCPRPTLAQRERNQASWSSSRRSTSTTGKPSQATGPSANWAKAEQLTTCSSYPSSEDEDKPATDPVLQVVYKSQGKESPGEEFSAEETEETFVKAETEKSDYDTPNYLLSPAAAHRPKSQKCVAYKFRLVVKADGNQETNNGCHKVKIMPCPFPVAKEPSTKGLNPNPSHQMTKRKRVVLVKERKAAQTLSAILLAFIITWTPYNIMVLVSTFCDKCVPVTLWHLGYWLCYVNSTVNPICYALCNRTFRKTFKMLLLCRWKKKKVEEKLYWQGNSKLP

SMILES: O=C(N[C@H]1CCCC[C@@H]1O)c1cn(Cc2ccc(F)cc2)c2cccnc12 [Example 5, 1-(4-Fluorobenzyl)-N-((1S,2S)-2-hydroxycyclohexyl)-1H-pyrrolo[3,2-b]pyridine-3-carboxamide]
- EC50 (mAChR M5): > 10 µM
- EC50 (mAChR M3): > 10 µM
- d2 index [mean ± SEM] (Male Lister Hooded rats; 0.03 mg/kg p.o.): [0.04 ± 0.06]
- d2 index [mean ± SEM] (Male Lister Hooded rats; 0.1 mg/kg p.o.): [0.20 ± 0.05]**
- d2 index [mean ± SEM] (Male Lister Hooded rats; 0.3 mg/kg p.o.): [0.28 ± 0.05]***
- discrimination index [mean ± SEM] (male Long-Evans rats; Scopolamine/0.01 mg/kg p.o.): [50.5 ± 4.3]
- discrimination index [mean ± SEM] (male Long-Evans rats; Scopolamine/0.03 mg/kg p.o.): [61.7 ± 2.5]
- discrimination index [mean ± SEM] (male Long-Evans rats; Scopolamine/0.1 mg/kg p.o.): [72.9 ± 2.6]###
